Test results as given in article PMC11992225, “Antibacterial compounds against non-growing and intracellular bacteria” (npj Antimicrobials and Resistance, 2025).
Values after ≈ are worked out from the molar mass of the structure shown. Like-named read-outs stand apart in the source and are kept apart here.

Key:
[1] = test system: intracellular S. flexneri 5a M90T in TC7 cells; experiment: microbe, parasite or virus in culture; type: cell-based, Shigella flexneri; conditions: for IC50: Shigella flexneri, TC7, 14 h
non-growing UPEC CFT073 = experiment: Dilution-regrowth assay (screen, hit validation, dose-response) on stationary-phase UPEC; type: cell-based, Escherichia coli; conditions: for Regrowth, OD600 at 6h or 8h after dilution into drug-free medium: average; for Regrowth: OD600 after dilution into drug-free medium (mean): OD600 at 6h or 8h
Method in brief: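 Regrowth (OD600 after 6 h, 37 °C) of diluted non-growing CFT073, following 24 h compound treatment of 24 h stationary cultures, defines activity relative to untreated control. Screen at 20 µM, validation at 20, 10, 5 µM (duplicates), dose–response in three biological replicates fitted by five-parameter logistic.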

S. flexneri 5a M90T = experiment: MIC in tryptic soy broth, S. flexneri; type: cell-based, Shigella flexneri; conditions: for MIC: Shigella flexneri, 5AM90T, read-out: MIC (μM) TSB
Method in brief: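 MICs come from microdilution in CA-MHB/40 mM HEPES pH 7.4 for the UPEC, Pseudomonas and Staphylococcus strains, and in TSB for Shigella. UPEC also tested in LPM/30 mM MES pH 5.5.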

[2] = TC7 cells infected with GFP-expressing S. flexneri, 14 h treatment
[3] = E. coli in 1:4 CA-MHB (pH 7.4), concentration 1
[4] = E. coli in 1:4 CA-MHB (pH 7.4), concentration 2.5
[5] = E. coli in 1:4 CA-MHB (pH 7.4), concentration 5
[6] = E. coli in 1:4 CA-MHB (pH 7.4), concentration 10
[7] = E. coli in 1:4 CA-MHB (pH 7.4), concentration 30
[8] = E. coli in LPM (pH 5.5), concentration 1
[9] = E. coli in LPM (pH 5.5), concentration 2.5
[10] = E. coli in LPM (pH 5.5), concentration 5
[11] = E. coli in LPM (pH 5.5), concentration 10
[12] = E. coli in LPM (pH 5.5), concentration 30
[13] = Escherichia coli, E. coli, pH 7.4, regrowth delay of non-growing bacteria, 1:4 CA-MHB, 24 h treatment, OD600 6 h after 2500-fold dilution, read-out: EC50
[14] = E. coli in 1:4 CA-MHB (pH 7.4), concentration 0.25
[15] = E. coli in 1:4 CA-MHB (pH 7.4), concentration 0.5
[16] = E. coli in LPM (pH 5.5), concentration 0.25
[17] = E. coli in LPM (pH 5.5), concentration 0.5

Row | SMILES | IC50 [1] | Fluorescence intensity (RFU), Mean, 2 x MIC [1, 2] | Fluorescence intensity (RFU), Mean, 4 x MIC [1, 2] | Fluorescence intensity (RFU), Mean, 8 x MIC [1, 2] | Fluorescence intensity (RFU), Mean, 16 x MIC [1, 2] | Fluorescence intensity (RFU), Mean, 32 x MIC [1, 2] | Fluorescence intensity (RFU), Mean, MIC [1, 2] | Regrowth, OD600 at 6h or 8h after dilution into drug-free medium (non-growing UPEC CFT073; [3]) | Regrowth, OD600 at 6h or 8h after dilution into drug-free medium (non-growing UPEC CFT073; [4]) | Regrowth, OD600 at 6h or 8h after dilution into drug-free medium (non-growing UPEC CFT073; [5]) | Regrowth, OD600 at 6h or 8h after dilution into drug-free medium (non-growing UPEC CFT073; [6]) | Regrowth, OD600 at 6h or 8h after dilution into drug-free medium (non-growing UPEC CFT073; [7]) | Regrowth, OD600 at 6h or 8h after dilution into drug-free medium (non-growing UPEC CFT073; [8]) | Regrowth, OD600 at 6h or 8h after dilution into drug-free medium (non-growing UPEC CFT073; [9]) | Regrowth, OD600 at 6h or 8h after dilution into drug-free medium (non-growing UPEC CFT073; [10]) | Regrowth, OD600 at 6h or 8h after dilution into drug-free medium (non-growing UPEC CFT073; [11]) | Regrowth, OD600 at 6h or 8h after dilution into drug-free medium (non-growing UPEC CFT073; [12]) | MIC (S. flexneri 5a M90T) | Fluorescence intensity (RFU), Mean, 0.25 x MIC [1, 2] | Fluorescence intensity (RFU), Mean, 0.5 x MIC [1, 2] | further results
1 | Cc1oc(=O)oc1CN1CCN(c2cc3c(cc2F)c(=O)c(C(=O)O)c2n3C(C)S2)CC1 (stereo not drawn) [Prulifloxacin] | 147 nM | 8759.64 RFU | 6976.67 RFU | 4116.28 RFU | 3279.44 RFU | 2886.92 RFU | 8494.31 RFU | 0.198 | 0.109 | 0.093 | 0.094 | 0.092 | 0.586 | 0.570 | 0.549 | 0.564 | 0.416 | 0.0312 µM (≈ 0.0144 µg/mL) |  |  | MIC:IC50 ratio ([1]; S. flexneri MIC in TSB versus intracellular IC50): below 0.5; EC50 (non-growing UPEC CFT073; [13]): 571 nM
2 | CN1C[C@@H]2C[C@H]1CN2c1cc2c(cc1F)c(=O)c(C(=O)O)cn2C1CC1 [Danofloxacin] | 52 nM | 3750.58 RFU | 3092.69 RFU | 2319.78 RFU | 1798.5 RFU | 1629.06 RFU | 4339.36 RFU |  |  |  |  |  |  |  |  |  |  | 0.0625 µM (≈ 0.0223 µg/mL) | 9638.21 RFU | 8906.42 RFU | EC50 (non-growing UPEC CFT073; [13]): 2160 nM
3 | CO[C@H]1/C=C/O[C@@]2(C)Oc3c(C)c(O)c4c(O)c(c(/C=N/N=C/N5CCCCC5)c(O)c4c3C2=O)NC(=O)/C(C)=C\C=C\[C@H](C)[C@H](O)[C@@H](C)[C@@H](O)[C@@H](C)[C@H](OC(C)=O)[C@@H]1C [FCE-22250] |  | 1320.58 RFU | 1217.94 RFU | 1111.33 RFU | 979.361 RFU |  | 1487.86 RFU |  |  |  |  |  |  |  |  |  |  |  | 2896.5 RFU | 1857.94 RFU | Fluorescence intensity (RFU), Mean, 0.0625 x MIC ([1]; TC7 cells infected with GFP-expressing S. flexneri, 14 h treatment, 0.0625 x MIC): 8508.25 RFU; Fluorescence intensity (RFU), Mean, 0.125 x MIC ([1]; TC7 cells infected with GFP-expressing S. flexneri, 14 h treatment, 0.125 x MIC): 9069.58 RFU; Regrowth: OD600 after dilution into drug-free medium (mean) (non-growing UPEC CFT073; [14]): 0.613; Regrowth: OD600 after dilution into drug-free medium (mean) (non-growing UPEC CFT073; [15]): 0.587; Regrowth: OD600 after dilution into drug-free medium (mean) (non-growing UPEC CFT073; [3]): 0.569; Regrowth: OD600 after dilution into drug-free medium (mean) (non-growing UPEC CFT073; [4]): 0.549; Regrowth: OD600 after dilution into drug-free medium (mean) (non-growing UPEC CFT073; [5]): 0.529; Regrowth: OD600 after dilution into drug-free medium (mean) (non-growing UPEC CFT073; [6]): 0.515; Regrowth: OD600 after dilution into drug-free medium (mean) (non-growing UPEC CFT073; [7]): 0.347; Regrowth: OD600 after dilution into drug-free medium (mean) (non-growing UPEC CFT073; [16]): 0.566; Regrowth: OD600 after dilution into drug-free medium (mean) (non-growing UPEC CFT073; [17]): 0.535; Regrowth: OD600 after dilution into drug-free medium (mean) (non-growing UPEC CFT073; [8]): 0.500; Regrowth: OD600 after dilution into drug-free medium (mean) (non-growing UPEC CFT073; [9]): 0.418; Regrowth: OD600 after dilution into drug-free medium (mean) (non-growing UPEC CFT073; [10]): 0.299; Regrowth: OD600 after dilution into drug-free medium (mean) (non-growing UPEC CFT073; [11]): 0.206; Regrowth: OD600 after dilution into drug-free medium (mean) (non-growing UPEC CFT073; [12]): 0.134; EC50 (non-growing UPEC CFT073; E. coli, LPM pH 5.5, regrowth delay of non-growing bacteria, 24 h treatment, OD600 6 h after 2500-fold dilution, read-out: EC50): 3970 nM; EC50 (non-growing UPEC CFT073; LPM pH 5.5 (red curve), medium assigned by comparison with Dataset 1, read-out: EC50 (regrowth inhibition curve, Fig. S4)): 3450 nM; MIC (μM) TSB (S. flexneri 5a M90T; S. flexneri, extracellular bacteria in TSB): 16 µM (≈ 13.4 µg/mL)
4 | CC1COc2c(N3CCN(C)CC3)c(F)cc3c(=O)c(C(=O)O)cn1c23 (stereo not drawn) [Ofloxacin] | 113 nM | 3677.86 RFU | 3135.58 RFU | 2241.58 RFU | 1713.97 RFU | 1616.14 RFU | 4797.17 RFU | 0.685 | 0.648 | 0.610 | 0.563 | 0.271 | 0.589 | 0.574 | 0.582 | 0.564 | 0.570 | 0.125 µM (≈ 0.0452 µg/mL) | 9690.38 RFU | 8574.42 RFU | Regrowth, OD600 at 6h or 8h after dilution into drug-free medium (non-growing UPEC CFT073; [14]): 0.670; Regrowth, OD600 at 6h or 8h after dilution into drug-free medium (non-growing UPEC CFT073; [15]): 0.686; Regrowth, OD600 at 6h or 8h after dilution into drug-free medium (non-growing UPEC CFT073; [16]): 0.591; Regrowth, OD600 at 6h or 8h after dilution into drug-free medium (non-growing UPEC CFT073; [17]): 0.585
